One experiment has as its system HIV-IIIb. The experiment is described as follows: Antiviral assay in MT-4 cells infected with HIV-IIIb. The class given is cell-based. The conditions noted are these: MT4, 120 h; MT-4 cells, HIV-IIIb, 5 days; read-out: EC50 Range MT-4. How it is done:
See: Wolfe, etal J. Virol.
Antiviral Assays in MT2 and MT4 Cells
For the antiviral assay utilizing MT-2 cells, 50 μl of 2× test concentration of 5-fold serially diluted compound in culture medium with 10% FBS was added to each well of a 96-well plate (9 concentrations) in triplicate. MT-2 cells were infected with HIV-IIIb at a multiplicity of infection (m.o.i) of 0.01 for 3 hours. Fifty microliters of infected cell suspension in culture medium with 10% FBS (˜1.5×10^4 cells) was then added to each well containing 50 μl of diluted compound. The plates were then incubated at 37° C. for 5 days. For the antiviral assay utilizing MT-4 cells, 20 μl of 2× test concentration of 5-fold serially diluted compound in culture medium with 10% FBS was added to each well of a 384-well plate (7 concentrations) in triplicate. MT-4 cells were next mixed with HIV-IIIb at an m.o.i. of 0.1 and 20 μl of virus/cell mixture (˜2000 cells) was immediately added to each well containing 20 μl of diluted compound. The plates were then incubated at 37° C. for 5 days. After 5 days of incubation, 100 μl of CellTiter-Glo™ Reagent (catalog # G7571, Promega Biosciences, Inc., Madison, Wis.) was added to each well containing MT-2 cells and 40 μl to each well containing MT-4 cells. Cell lysis was carried out by incubating at room temperature for 10 min and then chemiluminescence was read.

Another experiment has as its target HIV integrase (Human immunodeficiency virus type 1 group M subtype B, UniProt P04585). The experiment in a line: biochemical.

The structures appear in SMILES notation. Bounds are passed on as bounds.

Usually EC50 stands for the concentration needed to bring the measured effect to its halfway point. For orientation: IC50 means the concentration at which inhibition is half-maximal. Higher therefore signals weaker potency.

Procedure for HIV integrase: Representative compounds of the invention were tested for biological activity by methods including anti-HIV assay, measuring inhibition of HIV-integrase strand transfer catalysis, and cytotoxicity.
HIV Integrase Assay (IC50 Determination)
The HIV Integrase assay is carried out in Reacti-Bind High Binding Capacity Streptavidin coated plates (Pierce # 15502) in 100 μl reactions. The wells of the plate are rinsed once with PBS. Each well is then coated at room temperature for 1 h with 100 μl of 0.14 μM Donor DNA with the following sequence:
After coating, the plate was washed twice with PBS. 3′processing of the Donor DNA is started by adding 80 μl of Integrase/buffer mixture (25 mM HEPES, pH 7.3, 12.5 mM DTT, 93.75 mM NaCl, 12.5 mM MgCl2, 1.25% Glycerol, 0.3125 uM integrase) to each well. 3′processing is allowed to proceed for 30 min at 37° C., after which, 10 μl of test compound and 10 μl of 2.5 uM DIG-labeled Target DNA with the following sequence:
are added to each well to allow strand transfer to proceed for 30 min at 37° C. The plate is then washed three times with 2×SSC for 5 min and rinsed once with PBS. For detection of integrated product, 100 μl of a 1/2000 dilution of HRP-conjugated anti-DIG antibody (Pierce #31468) are added to each well and incubated for 1 hour. The plate was then washed three times for 5 min each, with 0.05% Tween-20 in PBS. For signal development and amplification, 100 μl of SuperSignal ELISA Femto Substrate (Pierce #37075) are added to each well. Chemiluminescence (in relative light units) is read immediately at 425 nm in the SPECTRAmax GEMINI Microplate Spectrophotometer using the end point mode at 5 sec per well.
For IC50 determinations, eight concentrations of test compounds in a 1/2.2 dilution series are used.

Regarding `CC1c2c(c(O)c3ncccc3c2N(C)S(C)(=O)=O)C(=O)N1Cc1ccc(F)cc1` (racemic) [Compound 74, N-(7-(4-fluorobenzyl)-9-hydroxy-6-(R and S)-methyl-8-oxo-7,8-dihydro-6H-pyrrolo[3,4-g]quinolin-5-yl)-N-methylmethanesulfonamide], the 50% effective concentration (EC50) with HIV-IIIb was below 60 nM. Moreover, the IC50 on HIV integrase is below 60 nM.
As to `C[C@H]1c2c(c(O)c3ncccc3c2N(C)S(C)(=O)=O)C(=O)N1Cc1ccc(F)cc1` (single isomer, unassigned) [Compound 75], the 50% effective concentration (EC50) in the experiment with HIV-IIIb is below 60 nM. Besides, at HIV integrase, the IC50 was below 60 nM.
As to `C[C@@H]1c2c(c(O)c3ncccc3c2N(C)S(C)(=O)=O)C(=O)N1Cc1ccc(F)cc1` (single isomer, unassigned) [Compound 76], in the experiment on HIV-IIIb, the 50% effective concentration (EC50) is below 60 nM. At HIV integrase, this compound came in with an IC50 below 60 nM.
As to `CN(c1c2c(c(O)c3ncccc13)C(=O)N(Cc1ccc(F)cc1)C2O)S(C)(=O)=O` (single isomer, unassigned) [Compound 166, N-(7-(4-fluorobenzyl)-6,9-dihydroxy-8-oxo-7,8-dihydro-6H-pyrrolo[3,4-g]quinolin-5-yl)-N-methylmethanesulfonamide], the EC50 with HIV-IIIb is below 60 nM. This compound gave an IC50 on HIV integrase below 60 nM.
Regarding `Nc1c2c(c(O)c3ncccc13)C(=O)N(Cc1ccc(F)cc1)C2=O` [Compound 8, 5-amino-7-(4-fluorobenzyl)-9-hydroxy-6H-pyrrolo[3,4-g]quinoline-6,8(7H)-dione], the EC50 with HIV-IIIb is above 1000 nM. Further, the half-inhibitory concentration (IC50) against HIV integrase was in the range of 60 to 1000 nM.
For `CN(c1c2c(c(O)c3ncccc13)C(=O)N(Cc1ccc(F)cc1)C2)S(C)(=O)=O` [Compound 29, N-(7-(4-fluorobenzyl)-9-hydroxy-8-oxo-7,8-dihydro-6H-pyrrolo[3,4-g]quinolin-5-yl)-N-methylmethanesulfonamide] the same measures were below 60 nM and below 60 nM.
For `CN(c1c2c(c(OCOC(=O)OC3CCCC3)c3ncccc13)C(=O)N(Cc1ccc(F)cc1)C2)S(C)(=O)=O` [Compound 30, (7-(4-fluorobenzyl)-5-(N-methylmethan-5-ylsulfonamido)-8-oxo-7,8-dihydro-6H-pyrrolo[3,4-g]quinolin-9-yloxy)methyl cyclopentyl carbonate] the same measures were 60 to 1000 nM and above 1000 nM.
For `CN(c1c2c(c(OCOC(=O)OC3CCC3)c3ncccc13)C(=O)N(Cc1ccc(F)cc1)C2)S(C)(=O)=O` [Compound 31, (7-(4-fluorobenzyl)-5-(N-methylmethan-5-ylsulfonamido)-8-oxo-7,8-dihydro-6H-pyrrolo[3,4-g]quinolin-9-yloxy)methyl cyclobutyl carbonate] the same measures were below 60 nM and above 1000 nM.
In the case of `CCC(CC)OC(=O)OCOc1c2c(c(N(C)S(C)(=O)=O)c3cccnc13)CN(Cc1ccc(F)cc1)C2=O` [Compound 32, (7-(4-fluorobenzyl)-5-(N-methylmethan-5-ylsulfonamido)-8-oxo-7,8-dihydro-6H-pyrrolo[3,4-g]quinolin-9-yloxy)methyl pentan-3-yl carbonate], the EC50 in the experiment with HIV-IIIb is 60 to 1000 nM. This compound showed a half-maximal inhibitory concentration (IC50) on HIV integrase above 1000 nM.
For `CC(C)OC(=O)OCOc1c2c(c(N(C)S(C)(=O)=O)c3cccnc13)CN(Cc1ccc(F)cc1)C2=O` [Compound 33, (7-(4-fluorobenzyl)-5-(N-methylmethan-5-ylsulfonamido)-8-oxo-7,8-dihydro-6H-pyrrolo[3,4-g]quinolin-9-yloxy)methyl isopropyl carbonate] the same measures were below 60 nM and above 1000 nM.
As to `CC(C)OC(=O)Oc1c2c(c(N(C)S(C)(=O)=O)c3cccnc13)CN(Cc1ccc(F)cc1)C2=O` [Compound 34, 7-(4-fluorobenzyl)-5-(N-methylmethan-5-ylsulfonamido)-8-oxo-7,8-dihydro-6H-pyrrolo[3,4-g]quinolin-9-yl isopropyl carbonate], the EC50 in the experiment with HIV-IIIb is below 60 nM. The same compound came in with an IC50 against HIV integrase above 1000 nM.
For `CN(C)S(=O)(=O)N(C)c1c2c(c(O)c3ncccc13)C(=O)N(Cc1ccc(F)cc1)C2` [Compound 38, N-(7-(4-fluorobenzyl)-9-hydroxy-8-oxo-7,8-dihydro-6H-pyrrolo[3,4-g]quinolin-5-yl)-N,N′,N′-trimethylsulfamide] the same measures were below 60 nM and 60 to 1000 nM.
For `CN(C)S(=O)(=O)Nc1c2c(c(O)c3ncccc13)C(=O)N(Cc1ccc(F)cc1)C2` [Compound 41, N-(7-(4-fluorobenzyl)-9-hydroxy-8-oxo-7,8-dihydro-6H-pyrrolo[3,4-g]quinolin-5-yl)-N′,N′-dimethylsulfamide] the same measures were below 60 nM and 60 to 1000 nM.
For `CN(C)CCCS(=O)(=O)N(C)c1c2c(c(O)c3ncccc13)C(=O)N(Cc1ccc(F)cc1)C2` [Compound 44, N-(7-(4-fluorobenzyl)-9-hydroxy-8-oxo-7,8-dihydro-6H-pyrrolo[3,4-g]quinolin-5-yl)-N-methyl-3-(dimethylamino)-propane-1-sulfonamide] the same measures were below 60 nM and below 60 nM.
With `CN(c1c2c(c(O)c3ncccc13)C(=O)N(Cc1ccc(F)cc1)C2)S(=O)(=O)CCCN1CCOCC1` [Compound 46, N-(7-(4-fluorobenzyl)-9-hydroxy-8-oxo-7,8-dihydro-6H-pyrrolo[3,4-g]quinolin-5-yl)-N-methyl-3-morpholinopropane-1-sulfonamide], the EC50 with HIV-IIIb is below 60 nM.
Consider `CN(c1c2c(c(O)c3ncccc13)C(=O)N(Cc1ccc(F)cc1)C2)S(=O)(=O)CCCC#N` [Compound 48, 3-cyano-N-(7-(4-fluorobenzyl)-9-hydroxy-8-oxo-7,8-dihydro-6H-pyrrolo[3,4-g]quinolin-5-yl)-N-methylpropane-1-sulfonamide], for which the 50% effective concentration (EC50) with HIV-IIIb is below 60 nM.
On the same count and under the same terms, the value for `CN(c1c2c(c(O)c3ncccc13)C(=O)N(Cc1ccc(F)cc1)C2)S(=O)(=O)CCCn1ccnc1` [Compound 49, N-(7-(4-fluorobenzyl)-9-hydroxy-8-oxo-7,8-dihydro-6H-pyrrolo[3,4-g]quinolin-5-yl)-3-(1 H-imidazol-1-yl)-N-methylpropane-1-sulfonamide] was below 60 nM.
For `O=C1c2c(c(N3CCCS3(=O)=O)c3cccnc3c2O)CN1Cc1ccc(F)cc1` [Compound 52, N-(7-(4-fluorobenzyl)-9-hydroxy-8-oxo-7,8-dihydro-6H-pyrrolo[3,4-g]quinolin-5-yl)-N-2-dioxoisothiazolidine], in the experiment on HIV-IIIb, the EC50 was below 60 nM. The compound also displayed an IC50 against HIV integrase below 60 nM.
For `CC(C)S(=O)(=O)N(C)c1c2c(c(O)c3ncccc13)C(=O)N(Cc1ccc(F)cc1)C2` [Compound 54, N-(7-(4-fluorobenzyl)-9-hydroxy-8-oxo-7,8-dihydro-6H-pyrrolo[3,4-g]quinolin-5-yl)-N-methylpropane-2-sulfonamide], the EC50 in the experiment on HIV-IIIb was below 60 nM. The compound further yielded a 50% inhibitory concentration (IC50) against HIV integrase of 60 to 1000 nM.
For `CN(c1c2c(c(O)c3ncccc13)C(=O)N(Cc1ccc(F)cc1)C2)S(=O)(=O)c1cn(C)cn1` [Compound 56, N-(7-(4-fluorobenzyl)-9-hydroxy-8-oxo-7,8-dihydro-6H-pyrrolo[3,4-g]quinolin-5-yl)-N,1-dimethyl-1 H-imidazole-4-sulfonamide] the same measures were below 60 nM and below 60 nM.
For `Cc1nc(C)c(S(=O)(=O)N(C)c2c3c(c(O)c4ncccc24)C(=O)N(Cc2ccc(F)cc2)C3)s1` [Compound 58, N-(7-(4-fluorobenzyl)-9-hydroxy-8-oxo-7,8-dihydro-6H-pyrrolo[3,4-g]quinolin-5-yl)-N,2,4-trimethylthiazole-5-sulfonamide] the same measures were below 60 nM and 60 to 1000 nM.
For `CN(C)CCS(=O)(=O)N(C)c1c2c(c(O)c3ncccc13)C(=O)N(Cc1ccc(F)cc1)C2` [Compound 60, N-(7-(4-fluorobenzyl)-9-hydroxy-8-oxo-7,8-dihydro-6H-pyrrolo[3,4-g]quinolin-5-yl)-N-methyl-2-dimethylaminoethane-1-sulfonamide] the same measures were below 60 nM and below 60 nM.
In the case of `CN(C)C(=O)C(=O)N(C)c1c2c(c(O)c3ncccc13)C(=O)N(Cc1ccc(F)cc1)C2` [Compound 62, N1-(7-(4-fluorobenzyl)-9-hydroxy-8-oxo-7,8-dihydro-6H-pyrrolo[3,4-g]quinolin-5-yl)-N1,N2,N2-trimethyloxalamide], the half-maximal effective concentration (EC50) in the experiment on HIV-IIIb is below 60 nM. For the same compound, the IC50 against HIV integrase was in the range of 60 to 1000 nM.
For `CC(=O)N(C)c1c2c(c(O)c3ncccc13)C(=O)N(Cc1ccc(F)cc1)C2` [Compound 64, N-(7-(4-fluorobenzyl)-9-hydroxy-8-oxo-7,8-dihydro-6H-pyrrolo[3,4-g]quinolin-5-yl)-N-methylacetamide] the same measures were below 60 nM and below 60 nM.
For `CC(C)C(=O)Nc1c2c(c(O)c3ncccc13)C(=O)N(Cc1ccc(F)cc1)C2` [Compound 67, N-(7-(4-fluorobenzyl)-9-hydroxy-8-oxo-7,8-dihydro-6H-pyrrolo[3,4-g]quinolin-5-yl)isobutyramide] the same measures were below 60 nM and below 60 nM.
`CCNS(=O)(=O)N(CC)c1c2c(c(O)c3ncccc13)C(=O)N(Cc1ccc(F)cc1)C2` [Compound 232]: the EC50 in the experiment on HIV-IIIb was below 60 nM.

The values are drawn from patent publication US20070072831A1, “Integrase inhibitor compounds” (GILEAD SCIENCES, INC., priority 2005, published 2007).
